Reference: ChEMBL document CHEMBL1159022, “Isolation of Latrunculin A, 6,7-Epoxylatrunculin A, Fijianolide A, and Euryfuran from a New Genus of the Family Thorectidae” (J Nat Prod, 1992)
Values after ≈ are worked out from the molar mass of the structure shown.

Tests used:
[1] = Inhibition of PMA-induced mouse EL-4.IL-2 cell adhesion at 0.025 ug/ml; format: functional
P388 = test: Antiproliferative activity against mouse P388 cells; format: functional, cell-based
A549 = test: Antiproliferative activity against human A549 cells; format: functional, cell-based
Candida albicans = test: Antifungal activity against Candida albicans; format: functional
Mus musculus = species on record: Mus musculus; test: Inhibition of mouse EL-4.IL-2 cell adhesion at 0.003 to 0.025 ug/ml in absence of PMA; format: functional; details: filed as agonist
[2] = Inhibition of PMA-induced mouse EL-4.IL-2 cell adhesion at 0.125 ug/ml; format: functional
[3] = Inhibition of PMA-induced mouse EL-4.IL-2 cell adhesion at 0.003 ug/ml; format: functional

| IC50 (P388) [µg/mL] | IC50 (A549) [µg/mL] | Compound | inhibition at 0.025 µg/mL [1] [%] | MIC (Candida albicans) [µg/mL] | Activity (Mus musculus) | inhibition at 0.125 µg/mL [2] [%] | inhibition at 0.003 µg/mL [3] [%] |
| --- | --- | --- | --- | --- | --- | --- | --- |
| 1.6 (≈ 7.33 µM) | 1.5 (≈ 6.87 µM) | CC1(C)CCC[C@@]2(C)c3cocc3CC[C@H]12 [EURYFURAN] | 48 | – | – | – | – |
| – | – | C/C1=C/C(=O)O[C@@H]2C[C@@H](CC[C@H](C)/C=C\C=C\CC1)O[C@@](O)([C@@H]1CSC(=O)N1)C2 [LATRUNCULIN A] | – | 15.6 (≈ 37 µM) | – | 50 | – |
| 1.8 (≈ 4.11 µM) | 0.2 (≈ 0.457 µM) | C/C1=C/C(=O)O[C@@H]2C[C@@H](CC[C@H](C)/C=C\C3OC3CC1)O[C@@](O)([C@@H]1CSC(=O)N1)C2 (stereo partly drawn) [6,7-EPOXYLATRUNCULIN A] | – | 25 (≈ 57.1 µM) | – | – | 100 |

| Compound | IC50 (P388) [µg/mL] | IC50 (A549) [µg/mL] | inhibition at 0.025 µg/mL [1] [%] | MIC (Candida albicans) [µg/mL] | Activity (Mus musculus) | inhibition at 0.125 µg/mL [2] [%] | inhibition at 0.003 µg/mL [3] [%] |
| --- | --- | --- | --- | --- | --- | --- | --- |
| C=C1C[C@H](C)C[C@@H]2CC=C[C@@H](C/C=C\C(=O)O[C@H]3C[C@@H](O[C@H]3/C=C/[C@@H]3CC(C)=CCO3)[C@@H](O)[C@@H](O)C1)O2 [FIJIANOLIDE A] | 1 (≈ 1.94 µM) | 1.4 (≈ 2.72 µM) | – | 6.2 (≈ 12 µM) | Agonist | – | – |
